IC50 data for 15 molecules are collected here from patent US20240300923A1, “IRAK4 Inhibitors” (ASTRAZENECA AB, priority 2022, published 2024).

The target of test [1] is T1, IRAK4 (Homo sapiens (Human), UniProt Q9NWZ3). The test can be described thus: IRAK4 enzyme assay (mass spectrometry readout). The test is classed as biochemical. The conditions noted are these: human recombinant IRAK4 0.2 nM, 3 mM ATP; geometric mean of at least 2 experiments. Here is the method:
Potency of IRAK4 Inhibitor Compounds in IRAK4 Enzyme Assay
The inhibitory activity of compounds against IRAK4 were determined in an enzymatic assay using mass spectrometry readout. Ten point half-log compound concentration response curves, with a top concentration of 1 μM or 10 μM, were generated from 10 mM stocks of compound solubilized in DMSO using an Echo 655 (Labcyte Inc) and added to 384 well assay plates (Greiner #781280). To the assay plates, 10 μL of human recombinant IRAK4 protein (Life Technologies #PV4002) diluted to a final concentration of 0.2 nM in assay buffer (50 mM Tris-HCl pH 7.4, 10 mM MgCl, 5 mM glutathione, 0.01% BSA, 3 mM ATP) was added. The enzyme was incubated with the compounds at room temperature for 15 minutes before a peptide substrate ([…], Innovagen custom synthesis, 10 mM in DMSO) was added to each well to a final concentration of 10 μM using an Echo 655 (Labcyte Inc). After two hours at room temperature, the reaction was stopped with 65 μL of 0.4% formic acid (Merck #33015). The unphosphorylated and phosphorylated peptide were measured by LC-MS/MS on a Waters TQ-S mass spectrometer. Peaks were integrated using the TargetLynx software and the ratios between phosphorylated and unphosphorylated peptides were calculated. Curves were fitted and compound potencies determined in Genedata Screener 19 (Genedata AG). IC50 values are the geometric mean of at least 2 experiments.

Test [2] has as its target T1, IRAK4. The test can be described thus: IRAK4 phosphorylation cell assay (IL-1β-stimulated Karpas-299 cells). Type of test: cell-based. The conditions noted are these: IRAK4 auto-phosphorylation (pIRAK4 Thr345/Ser346) in IL-1β-stimulated Karpas-299 cells; geometric mean of at least 2 experiments. Here is the method: IRAK4 Phosphorylation Cell Assay
The activation of IRAK4 by TLR or IL-1R ligands leads to IRAK4 auto-phosphorylation, which can be prevented by IRAK4 kinase inhibitors. The effect of IRAK4 inhibitor compounds on IRAK4 auto-phosphorylation was assessed in IL-1β-stimulated Karpas-299 cells as a measurement of cellular potency. Karpas-299 cells were cultured in RPMI 1640 (Gibco 61870-010) containing 10% FBS (Gibco #10270). Cells were plated at 2×10^4 cells per well in poly-D-lysine coated 384 well plates (Corning #356663) to which compounds had been added at various concentrations (10 point half log dose response with a final top concentration of 30 μM) using an Echo 655 (Labcyte Inc). Cells were centrifuged (250 g, 4 mins), incubated at 37° C. for 1 h, then stimulated with 22.7 ng/mL recombinant IL-1β (R&D Systems, #201-LB-025) at 37° C. for 10 mins, followed by fixation in 4% paraformaldehyde for 20 mins and permeabilization in ice-cold 70% MeOH in PBS for 30 mins. Cells were washed twice with phosphate-buffered saline (PBS) on a BlueWasher (BlueCatBio) then blocked with PBS containing 10% FBS for 20 mins. Blocking solution was removed with a BlueWasher and cells were stained with anti-pIRAK4 (Thr345/Ser346) (CST, #11927, 1:400) in blocking buffer with 0.05% Tween-20 for 1 h, then washed twice with PBS containing 0.05% Tween-20 on a BlueWasher, followed by staining with a Alexa 647-conjugated secondary anti-rabbit IgG antibody (CST, #4414, 1:2,000) and Hoechst 33342 (Sigma, 1:2,000) in blocking buffer with 0.05% Tween-20 for 30 mins. Finally, the cells were washed twice with PBS containing 0.05% Tween-20 and imaged on an ImageXpress Micro (Molecular Devices) with a 10× air objective using the appropriate filters. Images were analysed in Columbus (PerkinElmer) and the fluorescence intensity per cell from the secondary antibody was quantified. The quantified data were analysed in Genedata Screener 19 (Genedata AG). […] IC50 values are the geometric mean of at least 2 experiments.

For test [3], the target named is human cKit kinase (Homo sapiens (Human), UniProt P10721). The experiment in a line: cKit enzyme assay (LANCE, Eurofins CEREP). Type of test: biochemical. The conditions noted are these: human recombinant enzyme, 50 μM ATP; geometric mean of at least n=2, * = single experiment. Here is the method:
Potency of IRAK4 Inhibitor Compounds in cKit Enzyme Assay
Evaluation of the effects of the IRAK4 inhibitor compounds on the activity of the human cKit kinase quantified by measuring the phosphorylation of the substrate Ulight-TK peptide using a human recombinant enzyme and the LANCE® detection method at Eurofins CEREP, catalog item 3070, SOP no 1C768: The test compound, reference compound or water (control) are mixed with the enzyme (0.38 ng) in a buffer containing 40 mM Hepes/Tris (pH 7.4), 0.8 mM EGTA/Tris, 8 mM MgCl2, 1.6 mM DTT and 0.008% Tween 20. Thereafter, the reaction is initiated by adding 100 nM of the substrate Ulight-TK peptide and 50 μM ATP, and the mixture is incubated for 30 min at room temperature. For control basal measurements, the enzyme is omitted from the reaction mixture. Following incubation, the reaction is stopped by adding 13 mM EDTA. After 5 min, the anti-phopho-PT66 antibody labeled with europium chelate is added. After 60 more min, the fluorescence transfer is measured at lex=337 nm, lem=620 nm and lem=665 nm using a microplate reader (Envision, Perkin Elmer). The enzyme activity is determined by dividing the signal measured at 665 nm by that measured at 620 nm (ratio). The results are expressed as a percent inhibition of the control enzyme activity. The standard inhibitory reference compound is staurosporine, which is tested in each experiment at several concentrations to obtain an inhibition curve from which its IC50 value is calculated.
Data presented are the geometric mean of at least n=2, or as denoted by an*are obtained from a single experiment. […] Kinase selectivity can be a key determinant of clinical utility as off target toxicity can be reduced or eliminated.

T1 sequence (Q9NWZ3 whole entry): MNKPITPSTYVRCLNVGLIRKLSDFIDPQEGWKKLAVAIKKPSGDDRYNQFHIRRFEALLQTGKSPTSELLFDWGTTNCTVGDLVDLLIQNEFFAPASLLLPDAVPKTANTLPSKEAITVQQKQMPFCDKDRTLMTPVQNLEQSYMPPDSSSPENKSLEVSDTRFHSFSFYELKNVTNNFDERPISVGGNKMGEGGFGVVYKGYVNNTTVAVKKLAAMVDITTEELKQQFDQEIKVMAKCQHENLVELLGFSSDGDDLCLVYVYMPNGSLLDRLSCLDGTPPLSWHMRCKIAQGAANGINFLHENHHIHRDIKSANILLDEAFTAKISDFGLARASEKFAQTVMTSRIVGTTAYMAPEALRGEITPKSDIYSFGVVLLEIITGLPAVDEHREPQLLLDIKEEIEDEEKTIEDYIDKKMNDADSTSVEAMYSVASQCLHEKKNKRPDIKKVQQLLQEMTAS
Sequence of human cKit kinase (P10721 26-976): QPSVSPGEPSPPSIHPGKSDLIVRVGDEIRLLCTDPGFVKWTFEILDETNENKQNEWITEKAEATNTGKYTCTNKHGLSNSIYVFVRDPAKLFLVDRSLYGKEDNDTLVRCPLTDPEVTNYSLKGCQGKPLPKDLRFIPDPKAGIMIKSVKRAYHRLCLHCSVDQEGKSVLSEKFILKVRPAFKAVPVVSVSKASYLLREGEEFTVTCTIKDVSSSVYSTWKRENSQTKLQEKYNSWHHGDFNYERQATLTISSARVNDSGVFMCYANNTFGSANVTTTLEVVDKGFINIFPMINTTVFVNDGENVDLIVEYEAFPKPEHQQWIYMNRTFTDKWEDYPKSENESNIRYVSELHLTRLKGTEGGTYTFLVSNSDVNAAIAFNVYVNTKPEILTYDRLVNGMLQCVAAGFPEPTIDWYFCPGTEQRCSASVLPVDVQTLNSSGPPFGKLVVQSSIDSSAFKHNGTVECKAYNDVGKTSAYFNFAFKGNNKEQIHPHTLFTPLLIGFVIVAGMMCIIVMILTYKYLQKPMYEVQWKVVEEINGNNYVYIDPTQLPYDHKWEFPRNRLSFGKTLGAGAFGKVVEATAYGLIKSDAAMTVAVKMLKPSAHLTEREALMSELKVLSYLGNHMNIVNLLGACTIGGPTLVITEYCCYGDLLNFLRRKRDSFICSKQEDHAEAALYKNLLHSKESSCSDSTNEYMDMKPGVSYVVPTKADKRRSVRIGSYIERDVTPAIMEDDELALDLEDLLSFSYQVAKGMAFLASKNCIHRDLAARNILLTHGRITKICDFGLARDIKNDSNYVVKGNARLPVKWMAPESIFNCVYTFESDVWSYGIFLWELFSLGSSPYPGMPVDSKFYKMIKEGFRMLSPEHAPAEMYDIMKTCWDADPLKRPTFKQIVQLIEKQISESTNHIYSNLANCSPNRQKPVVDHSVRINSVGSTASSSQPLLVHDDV

Take `COc1cc2nn([C@H]3CC[C@H](N(C)C(=O)[C@@H](C)O)CC3)cc2cc1C(=O)Nc1cccn(CF)c1=O` [Example 9, N-(1-(Fluoromethyl)-2-oxo-1,2-dihydropyridin-3-yl)-2-((1R,4r)-4-((R)-2-hydroxy-N-methylpropanamido)cyclohexyl)-6-methoxy-2H-indazole-5-carboxamide]: the half-inhibitory concentration (IC50) (in general, the concentration needed to halve the response being measured) in test [1] worked out at 0.4 nM; in test [2] it was 15 nM; in test [3], 3300 nM.

Consider `COc1cc2nn([C@H]3CC[C@H](n4cncn4)CC3)cc2cc1C(=O)Nc1cccn(C)c1=O` [Example 26, 2-((1r,4r)-4-(1H-1,2,4-Triazol-1-yl)cyclohexyl)-6-methoxy-N-(1-methyl-2-oxo-1,2-dihydropyridin-3-yl)-2H-indazole-5-carboxamide], for which the IC50 in test [1] was 2.2 nM; in test [2], 38 nM; in test [3], > 100000 nM.

Turning to `COc1cc2nn([C@H]3CC[C@H](N(C)C(=O)[C@@H](C)O)CC3)cc2cc1C(=O)Nc1cccn(-c2cn(C)nn2)c1=O` [Example 16, 2-((1R,4r)-4-((R)-2-Hydroxy-N-methylpropanamido)cyclohexyl)-6-methoxy-N-(1-(1-methyl-1H-1,2,3-triazol-4-yl)-2-oxo-1,2-dihydropyridin-3-yl)-2H-indazole-5-carboxamide], the IC50 worked out at 1 nM in test [1], 33 nM in test [2] and 1400 nM in test [3].

Take `COc1cc2nn(C3CCC(c4cccnn4)CC3)cc2cc1C(=O)Nc1cccn(C)c1=O` (single isomer, unassigned) [Example 23, 6-Methoxy-N-(1-methyl-2-oxo-1,2-dihydropyridin-3-yl)-2-(4-(pyridazin-3-yl)cyclohexyl)-2H-indazole-5-carboxamide]: the IC50 in test [1] was 5 nM; in test [2], 185 nM.

For the molecule `COc1cc2nn([C@H]3CC[C@H](N(C)C(=O)[C@@H](C)O)CC3)cc2cc1C(=O)Nc1cccn(C2CC2)c1=O` [Example 12, N-(1-Cyclopropyl-2-oxo-1,2-dihydropyridin-3-yl)-2-((1R,4r)-4-((R)-2-hydroxy-N-methylpropanamido)cyclohexyl)-6-methoxy-2H-indazole-5-carboxamide], the values for the IC50 in test [1], in test [2] and in test [3] were 0.6 nM, 24 nM and 58200 nM, respectively.

As for `COc1cc2nn([C@H]3CC[C@H](N4CCN(C)C4=O)CC3)cc2cc1C(=O)Nc1cccn(C)c1=O` [Example 19, 6-Methoxy-N-(1-methyl-2-oxo-1,2-dihydropyridin-3-yl)-2-((1r,4r)-4-(3-methyl-2-oxoimidazolidin-1-yl)cyclohexyl)-2H-indazole-5-carboxamide], the IC50 in test [1] was found to be 0.9 nM; in test [2], 34 nM; in test [3], 10600 nM.

Take `COc1cc2nn([C@H]3CC[C@H](N(C)C(=O)[C@@H](C)O)CC3)cc2cc1C(=O)Nc1cccn(CC#N)c1=O` [Example 10, N-(1-(Cyanomethyl)-2-oxo-1,2-dihydropyridin-3-yl)-2-((1R,4r)-4-((R)-2-hydroxy-N-methylpropanamido)cyclohexyl)-6-methoxy-2H-indazole-5-carboxamide]: the IC50 is 1.4 nM in test [1], 37 nM in test [2] and 2500 nM in test [3].

Take `COc1cc2nn([C@@H]3CCC(N(C)C(C)=O)C[C@H]3C)cc2cc1C(=O)Nc1cccn(C)c1=O` (single isomer, unassigned) [Example 2]: the IC50 was 10.7 nM in test [1] and 238 nM in test [2].

As to `COc1cc2nn(C3CCC(c4cccnn4)CC3)cc2cc1C(=O)Nc1cccn(C)c1=O` (single isomer, unassigned) [Example 24, 6-Methoxy-N-(1-methyl-2-oxo-1,2-dihydropyridin-3-yl)-2-(4-(pyridazin-3-yl)cyclohexyl)-2H-indazole-5-carboxamide], the IC50 was found to be 1.2 nM in test [1], 17 nM in test [2] and 88100 nM in test [3].

With `COc1cc2nn([C@H]3CC[C@H](N(C)C(=O)[C@@H](C)O)CC3)cc2cc1C(=O)Nc1cccn(C)c1=O` [Example 8, 2-((1R,4r)-4-((R)-2-Hydroxy-N-methylpropanamido)cyclohexyl)-6-methoxy-N-(1-methyl-2-oxo-1,2-dihydropyridin-3-yl)-2H-indazole-5-carboxamide], the values for the IC50 in test [1], in test [2] and in test [3] were 0.8 nM, 29 nM and 7000 nM, respectively.

As for `COc1cc2nn([C@H]3CC[C@H](N(C)C(=O)[C@@H](C)O)CC3)cc2cc1C(=O)Nc1cccn(-c2cnn(C)c2)c1=O` [Example 15, 2-((1R,4r)-4-((R)-2-Hydroxy-N-methylpropanamido)cyclohexyl)-6-methoxy-N-(1-(1-methyl-1H-pyrazol-4-yl)-2-oxo-1,2-dihydropyridin-3-yl)-2H-indazole-5-carboxamide], the results for the IC50 in test [1], in test [2] and in test [3] were 0.9 nM, 35 nM and 2700 nM, respectively.

As to `COc1cc2nn([C@H]3CC[C@H](N(C)C(=O)[C@@H](C)O)CC3)cc2cc1C(=O)Nc1cccn(-c2cn[nH]c2)c1=O` [Example 14, 2-((1R,4r)-4-((R)-2-Hydroxy-N-methylpropanamido)cyclohexyl)-6-methoxy-N-(2-oxo-1-(1H-pyrazol-4-yl)-1,2-dihydropyridin-3-yl)-2H-indazole-5-carboxamide], the IC50 in test [1] is 0.3 nM; in test [2] it was 15 nM.

As to `COc1cc2nn([C@H]3CC[C@]4(CC3)COC(=O)N4C)cc2cc1C(=O)Nc1cccn(C)c1=O` [Example 21, 6-Methoxy-N-(1-methyl-2-oxo-1,2-dihydropyridin-3-yl)-2-((5r,8r)-1-methyl-2-oxo-3-oxa-1-azaspiro[4.5]decan-8-yl)-2H-indazole-5-carboxamide], the values for the IC50 in test [1] and in test [2] were 0.4 nM and 20 nM, respectively.

As for `COc1cc2nn([C@@H]3CC[C@H](N(C)C(C)=O)C[C@@H]3C)cc2cc1C(=O)Nc1cccn(C)c1=O` (single isomer, unassigned) [Example 6], the IC50 in test [1] is 199 nM; in test [2] it was 2880 nM.

For `COc1cc2nn([C@@H]3CC[C@H](N(C)C(C)=O)C[C@@H]3C)cc2cc1C(=O)Nc1cccn(C)c1=O` (single isomer, unassigned) [Example 7], the IC50 was found to be 459 nM in test [1] and 4500 nM in test [2].
